Key:
[1] = test system: histone deacetylase (HDAC); test: HDAC Fluorescent Activity Assay/Drug Discovery Kit (Biomol) with nuclear extracts of HeLa cell as HDAC source; type: biochemical; settings: compounds 0.01 to 10 μM, 25° C., 20 minutes, fluorescence
Procedure: Fluorogenic Histone Deacetylase Lysyl Substrate was used as substrate for HDAC and the test is based on the fact that the removal of acetyl group by HDAC activity causes the substrate to occur emmition wavelength in the ranging from 360 nm to 460 nm.
Various concentrations of the compounds of the present invention ranging from 0.01 to 10 μM were reacted with HDAC enzyme at 25° C. for 20 minutes and equal volume of developer was added thereto. The fluorescence signal was detected at the wavelength in the range 350 to 460 nm using by fluorescence spectrometer.

PC-3 cells = test: Tumor cell growth inhibition, sulforhodamine B (SRB) staining; type: cell-based; settings: PC-3 human prostatic carcinoma cells, 48 hrs, absorbance 540 nm, adriamycin as positive control
Procedure: PC-3 cells (ATCC, US), human prostatic carcinoma cell line, were cultured in RMPI 1640 supplemented with 10% fetal bovine serum.
Appropriate concentrations of cells (5×10^4 cells/ml) cultured in RMPI 1640 supplemented with 5% fetal bovine serum were poured into 96-well plate and incubated at 37° C. in 5% CO2 condition. The day after the incubation, PC-3 cells were fixed on Time zero (T0) plate by adding 50 μl/well of 50% trichloroacetic acid and the cell concentration was set to zero point by fixing the cells. In the cells treated with test samples, 50% TCA was added to each wells in 50 ul/well after 48 hrs to fix the cells. The final concentration of adding test compounds were 0.01, 0.03, 0.1, 0.3, 1 μg/ml respectively. Then, each fixed plate was washed, dried and 100 μl/well of 0.4% reaction solution containing sulforhodamine B (SRB) reagent dissolved in 0.1% acetic acid was added thereto to stain the cells. 30 minutes later, the cell was washed with 0.1% acetic acid, dried at room temperature, and 10 mM of TRIS base (pH 10.5) was added thereto to dissolve the staining agent. Finally, the absorbance detected at 540 nm was measured and the value was conversed into percentage comparing with that of control group. IC50 (μg/ml), the concentration of the group required to inhibit the cancer cell growth by 50%, was calculated from the data (AA: IC50's<1, A: IC50's<5, B: IC50's<10 and C: IC50's>10). Also, the inhibiting activity of cell growth was expressed as various symbols in accordance with the potency of examples e.g., AA: closely equivalent (1˜2 times), A: slightly weaker (3˜5 times), B: weaker (5˜10 times), C: very weaker (more than 10 times) than that of adriamycin used as a positive control group.

Row | Compound | HDAC inhibition [1] | IC50 (PC-3 cells)
1 | O=C(CCC1=CCN(CCCc2ccccc2)C1=O)NO [Example 4, N-hydroxy-3-[2-oxo-1-(3-phenyl-propyl)-2,5-dihydro-1H-pyrrol-3-yl]-propionamide] | AAA | < 5 µg/mL
2 | O=C(CCC1=CCN(Cc2ccc3ccccc3c2)C1=O)NO [Example 49, N-hydroxy-3-(1-naphthalene-2-ylmethyl-2-oxo-2,5-dihydro-1H-pyrrol-3-yl)-propionamide] |  | < 5 µg/mL
3 | O=C(CCC1=CCCN(CCc2ccccc2)C1=O)NO [Example 60] |  | < 10 µg/mL
4 | O=C(CC1=CCN(CCc2ccccc2)C1=O)NO [Example 22, N-hydroxy-2-(2-oxo-1-phenethyl-2,5-dihydro-1H-pyrrol-3-yl)-acetamide] |  | > 10 µg/mL
5 | O=C(CCC1=CCN(Cc2ccc(Cl)cc2)C1=O)NO [Example 13, 3-[1-(4-chloro-benzyl)-2-oxo-2,5-dihydro-1H-pyrrol-3-yl]-N-hydroxy-propionamide] |  | < 5 µg/mL
6 | O=C(CCC1=CCCCN(CCCc2ccccc2)C1=O)NO [Example 106, N-Hydroxy-3-[2-oxo-1-(3-phenyl-ethyl)-2,5,6,7-tetrahydro-1H-azepin-3-yl]-propionamide] |  | > 10 µg/mL
7 | COc1ccc(CN2CC=C(CCC(=O)O)C2=O)c(OC)c1 [Example 16, 3-[1-(2,4-dimethoxy-benzyl)-2-oxo-2,5-dihydro-1H-pyrrol-3-yl]-propionic acid] |  | > 10 µg/mL
8 | O=C(CCC1=CCN(CCc2ccccc2[N+](=O)[O-])C1=O)NO [Example 31, N-hydroxy-3-{1-[2-(2-nitro-phenyl)-ethyl]-2-oxo-2,5-dihydro-1H-pyrrol-3-yl}-propionamide] |  | < 5 µg/mL
9 | COc1ccc(CN2CCC(CC(=O)NO)C2=O)c(OC)c1 (stereo not drawn) [Example 26, 2-[1-(2,4-dimethoxy-benzyl)-2-oxo-pyrrolidin-3-yl]-N-hydroxy-acetamide] |  | > 10 µg/mL
10 | O=C(CCC1=CCN(CCCc2ccc(Br)cc2)C1=O)NO [Example 44, 3-{1-[3-(4-bromo-phenyl)-propyl]-2-oxo-2,5-dihydro-1H-pyrrol-3-yl]-N-hydroxy-propionamide] |  | < 10 µg/mL
11 | O=C(CCC1=CCN(CCCc2ccc(Cl)cc2)C1=O)NO [Example 45, 3-{1-[3-(4-chloro-phenyl)-propyl]-2-oxo-2,5-dihydro-1H-pyrrol-3-yl]-N-hydroxy-propionamide] |  | < 10 µg/mL
12 | COc1ccc(CN2CCC=C(CCC(=O)O)C2=O)c(OC)c1 [Example 63, 3-[1-(2,4-dimethoxybenzyl)-2-oxo-1,2,5,6-tetrahydro-pyridin-3-yl)-propionic acid] |  | > 10 µg/mL
13 | O=C(CCC1=CCN(CCc2ccc(Br)cc2)C1=O)NO [Example 35, 3-{1-[2-(4-bromo-phenyl)-ethyl]-2-oxo-2,5-dihydro-1H-pyrrol-3-yl}-N-hydroxy-propionamide] |  | < 5 µg/mL
14 | O=C(CCC1=CCCN(Cc2ccc3ccccc3c2)C1=O)NO [Example 103, N-hydroxy-3-(1-(naphthalene-2-yl-methyl)-2-oxo-1,2,5,6-tetrahydro-pyridin-3-yl)-propionamide] |  | < 10 µg/mL
15 | Cc1ccccc1CN1CC=C(CCC(=O)NO)C1=O [Example 6, N-hydroxy-3-[1-(2-methyl-benzyl)-2-oxo-2,5-dihydro-1H-pyrrol-3-yl]-propionamide] |  | < 10 µg/mL
16 | COc1ccccc1CCN1CC=C(CCC(=O)NO)C1=O [Example 36, N-hydroxy-3-{1-[2-(2-methoxy-phenyl)-ethyl]-2-oxo-2,5-dihydro-1H-pyrrol-3-yl}-propionamide] |  | < 5 µg/mL
17 | Cc1ccc(S(=O)(=O)Nc2ccc(CN3CCC=C(CCC(=O)NO)C3=O)cc2)cc1 [Example 77, N-hydroxy-3-2-oxo-1-[4-(toluene-4-sulfonylamino)-benzyl-1,2,5,6-tetrahydro-pyridin-3-yl]-propionamide] |  | < 5 µg/mL
